# Results: paper PMC11054132, “Neuroprotective Effects of Chemical Constituents of Leaves of Euonymus hamiltonianus Wall” (Plants, 2024)
# Entries after “also recorded” stand apart in the source; their conditions may differ.
# Columns and labels:
# [1] = tested on: NO production in LPS-activated BV-2 microglial cells; experiment: NO production (Griess reaction) in LPS-stimulated BV-2 microglial cells; format: cell-based, mouse; conditions: for IC50: pretreated 1 h, 100 ng/mL LPS (footnote 24 h; text 12 h), means ± SDs (n = 3); for Inhibitory effect on NO production (in words): LPS-stimulated BV-2 microglial cells
# Experimental: The anti-inflammatory effects of the fourteen compounds (1–14) isolated from E. hamiltonianus were evaluated in activated BV-2 microglial cells by the production of NO and proinflammatory cytokines. […] […] The compounds were continuously assessed to determine whether they suppressed the expression of iNOS and COX-2 in LPS-stimulated BV-2 microglial cells. The cells were stimulated with LPS in the presence of these compounds at various concentrations, and the expression levels of iNOS and COX-2 were determined by Western blotting. […] Thus, compound 3 may be considered a potential anti-inflammatory agent.
# For the Aβ-Hela-APPsw model, Hela cells were stably transfected with an APP carrying the Swedish mutation (APPsw) using BioT (Bioland Scientific LLC, Paramount, CA, USA) according to the manufacturer’s instructions, which was provided by Prof. Tae-Wan Kim (Department of Pathology, Columbia University of Medical Center, New York, NY 10032, USA). APPsw-transfected HeLa cells were grown in DMEM supplemented with 10% fetal bovine serum (FBS; Thermo Fisher Scientific, Lafayette, CA, USA), 1% penicillin/streptomycin (Thermo Fisher Scientific, Lafayette, CA, USA), 260 μg/mL Zeocin, and 400 μg/mL G418. The cells were maintained at 37 °C under a humidified atmosphere of 5% CO2. The stock sample solution was dissolved in DMSO and kept at −20 °C and diluted to the final concentration in fresh medium before each experiment. […] The EZ-Cytox kit (DAEILLAB, Cheongwon, Republic of Korea) was applied to detect the cell viability, following the manufacturer’s instructions, and measurements were taken by a microplate reader (BIO-TEK® Dower-Wave; BioTek, Winooski, VT, USA) under absorbance at 450 nm. The results were presented as the percentage of MTT reduction, compared with the control group as 100%. For the LPS-induced microglia model, the BV-2 mouse microglia cell line was provided by Prof. Lee Sung Jung’s research team in the College of Medicine, Seoul National University, and was cultured in DMEM-F12 with 5% FBS and 1% penicillin/streptomycin at 37 °C under a humidified atmosphere containing 5% CO2. And the cell viability assay was performed using the Aβ-Hela-APPsw model.
# […] The media were collected and centrifuged at 13,000 rpm for the removal of dead cells. The supernatants were collected and mixed with an equal volume (50 μL) of Griess reagents (1% sulfanilamide and N-(1-naphthyl) ethylenediamine dihydrochloride in 2.5% H3PO4) for 5 min at room temperature, and the Nitric Oxide concentration was measured at 540 nm using a microplate reader and compared with the sodium nitrite standard curve.
# [2] = Cytotoxicity (MTT assay) in BV-2 microglial cells; format: cell-based; conditions: mouse; BV-2 microglial cells, MTT assay; read-out: IC50 Value (µM) Cytotoxicity
# iNOS = experiment: Western blot of LPS-induced iNOS expression in BV-2 microglial cells; format: cell-based, mouse; conditions: LPS-stimulated BV-2 microglial cells, various concentrations (1.0, 2.0, 4.0 µM)
# Experimental: (§1) The anti-inflammatory effects of the fourteen compounds (1–14) isolated from E. hamiltonianus were evaluated in activated BV-2 microglial cells by the production of NO and proinflammatory cytokines. BV-2 microglial cells were stimulated with 0.1 µg/mL LPS for 12 h in the presence of the compounds at various concentrations, and the levels of NO in the culture supernatants were measured using Griess reactions. […] The compounds were continuously assessed to determine whether they suppressed the expression of iNOS and COX-2 in LPS-stimulated BV-2 microglial cells. The cells were stimulated with LPS in the presence of these compounds at various concentrations, and the expression levels of iNOS and COX-2 were determined by Western blotting. […] Thus, compound 3 may be considered a potential anti-inflammatory agent.
# The total protein samples (10 μg) were loaded in sodium dodecyl sulfate polyacrylamide gel electrophoresis (SDS–PAGE) gels with 10% acrylamide/bis and transferred to polyvinylidene difluoride membranes (Millipore, Burlington, MA, USA). Then, the membranes were blocked with 5% silky milk dissolved in TBST (Tris Buffered saline Tween) for 1 h under room temperature and incubated overnight at 4 °C with specific primary antibodies (1:1000). After being washed with TBST, the membranes were incubated with secondary HRP-conjugated IgG (1:2000) at room temperature for 1 h and visualized using enhanced chemiluminescence (ECL) reagents (Thermo Fisher Scientific, Lafayette, CA, USA). Densitometry analysis of the bands was performed with the fusion solo system (Vilber, Paris, France). The band densities were determined as the intensities of protein by TotalLab TL120 software v2009 (TotalLab, Newcastle, UK).
# COX-2 = experiment: Western blot of LPS-induced COX-2 expression in BV-2 microglial cells; format: cell-based, mouse; conditions: LPS-stimulated BV-2 microglial cells, various concentrations (1.0, 2.0, 4.0 µM)
# Experimental: as §1
# The total protein samples (10 μg) were loaded in sodium dodecyl sulfate polyacrylamide gel electrophoresis (SDS–PAGE) gels with 10% acrylamide/bis and transferred to polyvinylidene difluoride membranes (Millipore, Burlington, MA, USA). Then, the membranes were blocked with 5% silky milk dissolved in TBST (Tris Buffered saline Tween) for 1 h under room temperature and incubated overnight at 4 °C with specific primary antibodies (1:1000). […] The band densities were determined as the intensities of protein by TotalLab TL120 software v2009 (TotalLab, Newcastle, UK).
# [3] = Mus musculus, BV-2, BV-2 microglial cells
IC50 ([1]; BV-2 microglial cells) [µM],"IC50 [1, 3] [µM]",Compound,Inhibitory effect on NO production (in words) [1],IC50 at 12 h [2] [µM],LPS-induced iNOS protein expression (in words) (iNOS),LPS-induced COX-2 protein expression (in words) (COX-2)
16.3 ± 2.94,14.4,"O=c1c(O[C@@H]2O[C@H](CO)[C@H](O)[C@H](O)[C@H]2O)c(-c2ccc(O)c(O)c2)oc2cc(O)cc(O)c12 [Compound 3, quercetin-3-O-β-D-galactopyranoside]",effectively downregulated; also recorded: good inhibitory effects,> 100,suppressed; also recorded: most potent inhibitory activity; also recorded: effectively downregulated,suppressed; also recorded: most potent inhibitory activity
,14.4 ± 8.68,"O=c1c(O[C@@H]2O[C@H](CO)[C@@H](O)[C@H](O)[C@H]2O)c(-c2ccc(O)c(O)c2)oc2cc(O[C@@H]3O[C@H](CO)[C@@H](O)[C@H](O)[C@H]3O)cc(O)c12 [Compound 4, quercetin-3,7-di-O-β-D-glucopyranoside]",effectively downregulated; also recorded: good inhibitory effects,> 100,suppressed; also recorded: effectively downregulated,suppressed
